Data from patent publication US11185100B2 (priority 2014, dated 2021).
Like-named read-outs stand apart in the source and are kept apart here.

Biological target: T1R1/T1R3 receptor (Felis catus, UniProt E3UMS2)
Assay: Activation of T1R1/T1R3 receptor by transmembrane compounds and nucleotide derivatives, conducted as in Examples 1, 2 and 5 (Example 7)
Type: cell-based, cat
Settings: for Activity: modulation of T1R1/T1R3
Excerpt: (§1) Methods: HEK293 cells that stably express T1R3 and inducibly express T1R1 were exposed to nucleotide derivatives alone to activate the umami receptor. Activation of the T1R1/T1R3 receptor was detected by a change in intracellular calcium levels using a calcium sensitive fluorescent dye. Cells that express T1R3 but not T1R1 were used as a control. A FLIPR® Tetra or a FlexStation® 3 was used for data capture.
as §1, with “alone or in combination with one or more amino acids and/or one or more nucleotides” for “alone”, “dye and/or a luminescent reporter system.” for “dye.”
as §1, with “transmembrane compounds” for “nucleotide derivatives”, “alone or in combination with one or more amino acids and/or one or more nucleotides” for “alone”
In each experiment, serial dilutions of up to 10 mM of the transmembrane compound were added to the T1R1/T1R3-expressing cells.

[1] = read-out: EC50 +Alanine (20 mM)
[2] = read-out: EC50 +Alanine (20 mM) + IMP (0.2 mM)

Row | SMILES | Max resp ΔF/F +Alanine (20 mM) | Max resp % of Ala +IMP (0.2 mM) (+IMP (0.2 mM)) | Max resp ΔF/F +IMP (0.2 mM) (+IMP (0.2 mM)) | Max resp % of IMP +Alanine (20 mM) (hek293 cells) | Activity | Thres +Alanine (20 mM) [mM] | Thres +IMP (0.2 mM) (+IMP (0.2 mM)) [mM] | other results
1 | CC(=O)Nc1ccc(C(=O)Nc2cc(-c3ccccc3)nn2CCO)cc1 [4-acetamido-N-(1-(2-hydroxyethyl)-3-phenyl-1H-pyrazol-5-yl)benzamide] | 0.0125 ΔF/F | 58.8 % of Ala | 0.4575 ΔF/F | 1.8 % of IMP | active | – | – | –
2 | CCCCc1nn(CC(=O)N2CCCC2)c(=O)n1Cc1ccccc1 [4-benzyl-3-butyl-1-(2-oxo-2-(pyrrolidin-1-yl)ethyl)-1H-1,2,4-triazol-5(4H)-one] | 0.8900 ΔF/F | 193.2 % of Ala | 1.5025 ΔF/F | 129.9 % of IMP | active | 0.3 | 0.1 | EC50 (compound alone in buffer, read-out: EC50 +buffer (alone)): > 600 µM; EC50 [1]: > 600 µM; EC50 [2]: > 600 µM; EC50 (read-out: EC50 +IMP (0.2 mM), +IMP (0.2 mM)): > 600 µM
3 | Nc1nc2c(ncn2[C@@H]2O[C@H](COP(=O)(O)O)[C@@H](O)[C@H]2O)c(=O)[nH]1 [Guanosine monophosphate (GMP), guanosine monophosphate, reference compound] | – | – | – | – | – | – | – | Max resp % of IMP +Alanine (20 mM) (+Alanine (20 mM)): 114.6 % of IMP; Max resp ΔF/F +Alanine (20 mM) (+Alanine (20 mM)): 0.7850 ΔF/F; Thres +Alanine (20 mM) (+Alanine (20 mM)): 0.01 mM
4 | N[C@@H](CS)C(=O)O [L-Cysteine, reference compound] | – | 74.6 % of Ala | 0.5800 ΔF/F | – | – | – | 10.0 | –
5 | N[C@@H](Cc1c[nH]cn1)C(=O)O [L-Histidine, L-histidine, reference compound] | – | 36.3 % of Ala | 0.2825 ΔF/F | – | – | – | 10.0 | –
6 | CSCC[C@H](N)C(=O)O [L-Methionine, reference compound] | – | – | – | – | – | – | – | Max resp ΔF/F +IMP (0.2 mM): 0.3500 ΔF/F; Thres +IMP (0.2 mM): 30.0 mM; Max resp % of Ala +IMP (0.2 mM) (hek293 cells): 45.0 % of Ala
7 | N[C@@H](Cc1ccccc1)C(=O)O [L-Phenylalanine, reference compound] | – | 75.9 % of Ala | 0.5900 ΔF/F | – | – | – | 0.1 | –
8 | N[C@@H](CO)C(=O)O [L-Serine, reference compound] | – | 100.0 % of Ala | 0.7775 ΔF/F | – | – | – | 3.0 | –
9 | N[C@@H](Cc1c[nH]c2ccccc12)C(=O)O [L-Tryptophan, reference compound] | – | 86.8 % of Ala | 0.6750 ΔF/F | – | – | – | 0.1 | –
10 | N[C@@H](Cc1ccc(O)cc1)C(=O)O [L-Tyrosine, reference compound] | – | 38.0 % of Ala | – | – | – | – | 3.0 | Max resp ΔF/F +IMP (0.2 mM): 0.2958 ΔF/F
11 | O=C(NCCCCNC(=O)c1cccnc1)c1cccnc1 [N,N′-(butane-1,4-diyl)dinicotinamide] | 0.0650 ΔF/F | 49.2 % of Ala | 0.3825 ΔF/F | 9.5 % of IMP | active | 1.0 | 0.1 | EC50 [2]: 610 µM; EC50 (read-out: T1R1/T1R3 EC50): 610 ± 360 µM
12 | O=C(NCCc1c[nH]c2ccccc12)c1cccnc1 [N-(2-(1H-indol-3-yl)ethyl)nicotinamide, N-(2-(1H-Indol-3-yl)ethyl)nicotinamide] | 1.1400 ΔF/F | 170.1 % of Ala | 1.3225 ΔF/F | 166.4 % of IMP | active | 0.03 | 0.003 | EC50 [1]: > 100 µM
13 | O=C(NCCc1ccccc1)c1ccccc1 [N-phenethylbenzamide] | 0.1400 ΔF/F | 126.0 % of Ala | 0.9800 ΔF/F | 20.4 % of IMP | active | 0.6 | 0.01 | –
